Experiments:
[1] = system: CD3+/CD8+ cells; test: Tumoral CD3+/CD8+ cells; conditions: in vivo
Excerpt: (§1) BNC105 primes the immunogenic potential of a tumor with increased tumoral IFNγ content compared to control treated animals (FIG. 3). IFNγ is secreted from CD4+ Th1, CD8+ and Th0 cells and activated NK cells.

[2] = system: CT26 murine colon tumor; test: Efficacy in syngeneic CT26 murine colon tumor model; type: in vivo, mouse (Balb/c); conditions: Day 11; Balb/c mice with s.c. CT26 tumors; BNC105 10 mg/kg Days 1 and 8; anti-CTLA4 (Clone 9D9) 10 mg/kg i.p. Days 2, 5, 9
Protocol: The present inventors conducted a separate study to determine the efficacy of BNC105 in combination with the immune-oncology therapeutic antibody anti-CTLA4 in the syngeneic CT26 murine colon tumor model. BNC105 (10 mg/kg) was administered on Days 1 and 8, the anti-CTLA4 antibody (Clone 9D9) was administered at 10 mg/kg i.p. on Days 2, 5, and 9. Balb/c mice were inoculated subcutaneously with C1′26 cells. When tumors reached an average volume of approximately 135 mm3 animals were randomised into 5 groups of 10 mice per group.
1. Saline+PBS control 2. Saline+IgG2b isotype control, antibody 3. BNC105P+IgG2b isotype control antibody 4. Saline+anti-CTLA4 antibody 5. BNC105P+anti-CTLA4 antibody
The in-life part of this study was completed on Day 12 of the treatment period due to tumor sizes in the control groups reaching ethical limits. Tumors were collected for both FAGS analysis and for histology. FAGS analysis and histology arc currently in progress and aim to identify changes of immune T-cell populations following treatment.

[3] = system: tumor infiltrating macrophages (CD11b+); test: Number of tumor infiltrating macrophages; type: in vivo; conditions: after treatment, monotherapy and combination (FIG. 5)
Excerpt: FIG. 5. Reduction in the number of tumor infiltrating macrophages (CD11b+) after treatment with BNC105 (monotherapy and combination).
This reduction would dramatically change the immune environment potentially releasing the immune dampening effect of macrophage subsets.

[4] = system: IL-12 subunit p40; test: Plasma biomarker analysis, Phase II mesothelioma trial (Multi-Analyte Profile); type: in vivo, human; conditions: patients, BNC105 16 mg/m2 monotherapy
Protocol: FIG. 4. Changes in levels of IL-12 p40 and II: 10 following administration with BNC105. Phase II Mesothelioma trial BNC105 (16 mg/m2) number of patients=19. Blood draws were pre-specified and optional. Patients receiving BNC105 alone received blood draws prior to BNC105 administration and 3 hours following administration. Plasma samples were used to determine exploratory analytes using Multi-Analyte Profile (MAP) technology (Myriad RBM). Graph showing % change from baseline. Percent change was calculated as analyse plasma concentration (post-baseline)/baseline*100. Mean±SEM shown on graph.
The balance between pro-inflammatory and anti-inflammatory signals provided by different immune cell populations is crucial for normal physiology and the suppression of cancer development. By altering this homeostasis an opportunity is provided for the immune system to alter the way it responds. Biomarker analysis on patient samples was conducted from a Phase II BNC105 monotherapy mesothelioma trial. […] The immune-modulatory cytokine IL-12 subunit p40, a key member of the IL-12 cytokine family, has emerged as a potent inducer of antitumor immunity. IL-12 subunit p40 is secreted by activated macrophages and serves as an essential inducer of Th1 cells development.

[5] = system: MC38 murine colon tumor; test: Efficacy in syngeneic MC38 murine colon tumor model; type: in vivo, mouse (C57/BL6); conditions: Day 17; C57/BL6 mice with s.c. MC38 tumors; BNC105P 10 mg/kg i.v. Day 1, 8, 15; anti-PD1 (Clone RMP1-14) 3.5 mg/kg i.p. Day 1, 4, 8, 12, 16
Protocol: The present inventors conducted a study to determine the efficacy of BNC105 in combination with the immunotherapeutic anti-PD1 antibody in the syngeneic MC38 murine colon tumor model. BNC105P was administered at 10 mg/kg i.v., on Day 1, 8 and 15, anti-PD1 antibody (Clone RMP1-14) was administered at 3.5 mg/kg i.p. on Day 1, 4, 8, 12 and 16. C57/BL6 mice were inoculated subcutaneously with MC38 cells. When tumors reached a volume of approximately 100-150 mm3 animals were randomised into groups of 10 mice per group.
1. Saline+PBS control 2. Saline+IgG2a isotypc control antibody 3. BNC105P+IgG2a isotype control antibody 4. Saline+anti-PD1 antibody 5. BNC105P+anti-PD1 antibody
The in-life pan of this study was completed on Day 18 of the treatment period due to tumor size in the control groups reaching the ethical limit. Tumors and blood were collected for FACS analysis and also tumors were collected for histology. FACS analysis and histology is currently under way and is aimed at identifying changes of immune T-cell populations following treatment.

[6] = system: IFNγ; test: Tumoral levels of IFNγ; type: in vivo; conditions: 16 mg/kg BNC105 versus saline (FIG. 3)
Protocol: FIG. 3. Tumoral levels of IFNγ in animals administered with saline or 16 mg/kg BNC105.
as §1

[7] = system: tumor vasculature (Renca); test: Vascular stain perfusion in murine orthotopic model of Renal Cancer (Renca); type: in vivo; conditions: perfusion of a vascular stain
Excerpt: In a murine orthotopic model of Renal Cancer (Renca) the present inventors have shown using perfusion of a vascular stain that tumor blood vessels arc obliterated after BNC105 treatment compared to normal tissue which remains unaffected.

In the case of COc1cc(C(=O)c2c(C)oc3c(O)c(OC)ccc23)cc(OC)c1OC [BNC105, 2-methyl-7-hydroxy-3-(3,4,5-trimethoxybenzoyl)-6-methoxybenzofuran], the “change in tumoral CD3+/CD8+ cells” value [1] is reported as “No change”, the tumor growth inhibition [2] is reported as 27% and the “number of tumor infiltrating macrophages (CD11b+)” value [3] is reported as “significant reduction”. For the same molecule, the “plasma IL-12 subunit p40 post administration” value ([4]; 3 hours following administration versus baseline) was “significantly increases”, the “plasma IL-12 subunit p40 at Day 8 post dosing” value ([4]; Day 8) was “remains elevated” and the “tumor growth inhibition (TGI)” value [5] was 40%. For the same molecule, the “tumoral IFNγ content compared to control treated animals” value [6] was “increased”, the “normal tissue vasculature after treatment” value [7] was “unaffected” and the “tumor blood vessels after treatment” value [7] was “obliterated”.
With COc1cc(C(=O)c2c(C)oc3c(OP(=O)([O-])[O-])c(OC)ccc23)cc(OC)c1OC.[Na+].[Na+] [BNC105P, di sodium [6-methoxy-2-methyl-3-(3,4,5-trimethoxybenzoyl)-1-benzofuran-7-yl] phosphate] the tumor growth inhibition [2] was 27% and the “tumor growth inhibition (TGI)” value [5] was 40%.
